Results taken from patent publication US10800792B2, “Inhibitors of Bruton's tyrosine kinase and method of their use” (JANSSEN PHARMACEUTICA NV, priority 2015, dated 2020).
Like-named read-outs stand apart in the source and are kept apart here.

Target: unphosphorylated-BTK kinase domain (UP-BTK), GST-tagged human BTK (389-659aa) (Homo sapiens (Human), UniProt Q06187)
Experiment: BTK kinase Lanthascreen binding assay
Conditions: pIC50 = negative log of the IC50 in molar; for IC50: read-out: BTK_I_binding pIC50 (converted)
How it was run: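 Lanthascreen competition binding; test compound vs fluorescent tracer on unphosphorylated BTK. Output: pIC50 (−log IC50, M).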

[1] = unphosphorylated-BTK kinase domain, 50 nM Tracer 236, 60 minutes
[2] = Lanthascreen tracer competition, 60 minutes incubation

Sequence of unphosphorylated-BTK kinase domain (UP-BTK), GST-tagged human BTK (389-659aa) (Q06187 389-659): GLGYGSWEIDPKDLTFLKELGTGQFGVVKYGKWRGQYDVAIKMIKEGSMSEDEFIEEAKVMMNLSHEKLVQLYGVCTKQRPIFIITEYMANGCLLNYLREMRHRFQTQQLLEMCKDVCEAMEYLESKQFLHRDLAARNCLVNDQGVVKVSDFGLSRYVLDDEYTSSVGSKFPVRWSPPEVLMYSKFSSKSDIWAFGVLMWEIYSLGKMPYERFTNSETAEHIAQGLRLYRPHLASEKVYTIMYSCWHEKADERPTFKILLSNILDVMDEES

| SMILES | BTK_I_binding pIC50 [1] | further results |
| --- | --- | --- |
| Cc1cc(Oc2ccccc2)ccc1N1C(=O)Nc2c(C(=O)N[C@@H]3CCN(C(=O)CCS(C)(=O)=O)C3)sc3nccc1c23 (single isomer, unassigned) [Example 494, (R)-5-(*S)-(2-Methyl-4-phenoxyphenyl)-N-(1-(3-(methylsulfonyl)propanoyl)pyrrolidin-3-yl)-4-oxo-4,5-dihydro-3H-1-thia-3,5,8-triazaacenaphthylene-2-carboxamide] | 8.0 | – |
| COCC(=O)N1CCC[C@@H](NC(=O)c2sc3nccc4c3c2NC(=O)N4c2ccc(Oc3ccccc3)cc2C)C1 (single isomer, unassigned) [Example 495, (R)—N-(1-(2-Methoxyacetyl)piperidin-3-yl)-5-(*S)-(2-methyl-4-phenoxyphenyl)-4-oxo-4,5-dihydro-3H-1-thia-3,5,8-triazaacenaphthylene-2-carboxamide] | 7.5 | – |
| C=CC(=O)N1CCC[C@@H](NC(=O)c2sc3nccc4c3c2NC(=O)N4c2ccc(OC3CCC3)cc2C)C1 (single isomer, unassigned) [Example 501, (R)—N-(1-Acryloylpiperidin-3-yl)-5-(*S)-(4-cyclobutoxy-2-methylphenyl)-4-oxo-4,5-dihydro-3H-1-thia-3,5,8-triazaacenaphthylene-2-carboxamide] | 7.9 | – |
| Cc1cc(Oc2ccccc2)ccc1N1C(=O)Nc2c(C(=O)N[C@@H]3CCN(C(=O)/C=C/CN(C)C)C3)sc3nccc1c23 (single isomer, unassigned) [Example 502, (R,E)-N-(1-(4-(Dimethylamino)but-2-enoyl)pyrrolidin-3-yl)-5-(*S)-(2-methyl-4-phenoxyphenyl)-4-oxo-4,5-dihydro-3H-1-thia-3,5,8-triazaacenaphthylene-2-carboxamide] | 7.9 | – |
| Cc1cc(Oc2ccccc2)ccc1N1C(=O)Nc2c(C(=O)N[C@@H]3CCCN(C(=O)/C=C/CO)C3)sc3nccc1c23 (single isomer, unassigned) [Example 503, (R,E)-N-(1-(4-Hydroxybut-2-enoyl)piperidin-3-yl)-5-(*S)-(2-methyl-4-phenoxyphenyl)-4-oxo-4,5-dihydro-3H-1-thia-3,5,8-triazaacenaphthylene-2-carboxamide] | 7.8 | – |
| [2H]C([2H])([2H])N1CCC[C@@H](NC(=O)c2sc3nccc4c3c2NC(=O)N4c2ccc(Oc3ccccc3)cc2C)C1 (single isomer, unassigned) [Example 535, (R)-5-(*S)-(2-Methyl-4-phenoxyphenyl)-N-(1-trideuteriomethylpiperidin-3-yl)-4-oxo-4,5-dihydro-3H-1-thia-3,5,8-triazaacenaphthylene-2-carboxamide] | – | IC50 [1]: 31.6 nM |
| C=CC(=O)N1CCC[C@@H](NC(=O)c2sc3nccc4c3c2NC(=O)N4c2ccc(OC3CCC3)cc2C)C1 (single isomer, unassigned) [Example 609, (R)—N-(1-Acryloylpiperidin-3-yl)-5-(*S)-(4-cyclobutoxy-2-methylphenyl)-4-oxo-4,5-dihydro-3H-1-thia-3,5,8-triazaacenaphthylene-2-carboxamide] | – | BTK_I_binding pIC50 [2]: 6.3 |
| CC(C)(C)OC(=O)N1C[C@H](O)C[C@@H](NC(=O)c2sc3nccc4c3c2NC(=O)N4c2ccc(Oc3ccccc3)cc2)C1 (single isomer, unassigned) [Example 611] | – | IC50 [2]: 631 nM |
| C=CC(=O)N1CCC[C@@H](NC(=O)c2sc3nccc4c3c2NC(=O)N4c2cnc(Oc3ccccc3)cc2C)C1 (single isomer, unassigned) [Example 662, (R)—N-(1-Acryloylpiperidin-3-yl)-5-(*S)-(4-methyl-6-phenoxypyridin-3-yl)-4-oxo-4,5-dihydro-3H-1-thia-3,5,8-triazaacenaphthylene-2-carboxamide] | – | BTK_I_binding pIC50 [2]: 8.1 |

Second part, led by results:

| BTK_I_binding pIC50 [1] | SMILES | further results |
| --- | --- | --- |
| 7.9 | Cc1cc(Oc2ccccc2)ccc1N1C(=O)Nc2c(C(=O)N[C@@H]3CCCN(C(=O)/C(C#N)=C/C4(C)COC4)C3)sc3nccc1c23 (single isomer, unassigned) [Example 509, (R,EZ)—N-(1-(2-Cyano-3-(3-methyloxetan-3-yl)acryloyl)piperidin-3-yl)-5-(*S)-(2-methyl-4-phenoxyphenyl)-4-oxo-4,5-dihydro-3H-1-thia-3,5,8-triazaacenaphthylene-2-carboxamide] | – |
| 8.1 | Cc1cc(Oc2ccccc2)ccc1N1C(=O)Nc2c(C(=O)N[C@@H]3CCN(C(=O)/C=C/CN)C3)sc3nccc1c23 (single isomer, unassigned) [Example 520, (R,E)-N-(1-(4-Aminobut-2-enoyl)pyrrolidin-3-yl)-5-(*S)-(2-methyl-4-phenoxyphenyl)-4-oxo-4,5-dihydro-3H-1-thia-3,5,8-triazaacenaphthylene-2-carboxamide] | – |
| 8.0 | Cc1cc(Oc2ccccc2)ccc1N1C(=O)Nc2c(C(=O)N[C@@H]3CCN(C(=O)/C=C/CO)C3)sc3nccc1c23 (single isomer, unassigned) [Example 522, (R,E)-N-(1-(4-Hydroxybut-2-enoyl)pyrrolidin-3-yl)-5-(*S)-(2-methyl-4-phenoxyphenyl)-4-oxo-4,5-dihydro-3H-1-thia-3,5,8-triazaacenaphthylene-2-carboxamide] | – |
| 7.8 | CN[C@@H](C)C(=O)N1CCC[C@@H](NC(=O)c2sc3nccc4c3c2NC(=O)N4c2ccc(Oc3ccccc3)cc2C)C1 (single isomer, unassigned) [Example 524, 5-(*S)-(2-Methyl-4-phenoxyphenyl)-N—((R)-1-((S)-2-(methylamino)propanol)piperidin-3-yl)-4-oxo-4,5-dihydro-3H-1-thia-3,5,8-triazaacenaphthylene-2-carboxamide] | – |
| 8.0 | C=CS(=O)(=O)N1CCC[C@@H](NC(=O)c2sc3nccc4c3c2NC(=O)N4c2ccc(Oc3ccccc3)cc2C)C1 (single isomer, unassigned) [Example 530, (R)-5-(*S)-(2-Methyl-4-phenoxyphenyl)-4-oxo-N-(1-(vinylsulfonyl)piperidin-3-yl)-4,5-dihydro-3H-1-thia-3,5,8-triazaacenaphthylene-2-carboxamide] | – |
| 7.2 | CCS(=O)(=O)N1CCC[C@@H](NC(=O)c2sc3nccc4c3c2NC(=O)N4c2ccc(Oc3ccccc3)cc2C)C1 (single isomer, unassigned) [Example 539, (R)—N-(1-(Ethylsulfonyl)piperidin-3-yl)-5-(*S)-(2-methyl-4-phenoxyphenyl)-4-oxo-4,5-dihydro-3H-1-thia-3,5,8-triazaacenaphthylene-2-carboxamide] | – |
| 7.2 | Cc1cc(Oc2ccccc2)ccc1N1C(=O)Nc2c(C(=O)N[C@@H]3CCCN(C(C)C)C3)sc3nccc1c23 (single isomer, unassigned) [Example 542, (R)—N-(1-Isopropylpiperidin-3-yl)-5-(*S)-(2-methyl-4-phenoxyphenyl)-4-oxo-4,5-dihydro-3H-1-thia-3,5,8-triazaacenaphthylene-2-carboxamide] | – |
| 8.1 | Cc1cc(Oc2ccccc2)ccc1N1C(=O)Nc2c(C(=O)N[C@@H]3CCN(C(=O)/C=C/CN4C[C@@H]5OCCO[C@@H]5C4)C3)sc3nccc1c23 (single isomer, unassigned) [Example 555, 5-(*S)-(2-Methyl-4-phenoxyphenyl)-4-oxo-N—((R)-1-((E)-4-((4aR,7aS)-tetrahydro-2H-[1,4]dioxino[2,3-c]pyrrol-6(3H)-yl)but-2-enol)pyrrolidin-3-yl)-4,5-dihydro-3H-1-thia-3,5,8-triazaacenaphthylene-2-carboxamide] | – |
